Laboratory results: PMC11477621, “Design, Synthesis, and Biological Evaluation of HDAC Inhibitors Containing Natural Product-Inspired N-Linked 2-Acetylpyrrole Cap” (Molecules, 2024)

What was measured:
[1] = system: HCT-116 (human colon cancer cell line); experiment: CCK8 cell viability assay, HCT-116; assay type: cell-based; details: 72 h, read-out: Proliferation inhibition IC50 ± SD, HCT-116
Protocol: (§1) The CCK8 (#AC11L054, Life ilab, Shanghai, China) method was used to detect the cells’ proliferation. Cells were seeded into a 96-well culture plate at an appropriate density. […] IC50 values were estimated using the four-parameter method. Each set of experiments was repeated independently three times with three replicate wells per concentration each time.

HDAC1 = target: T1, HDAC1 (Homo sapiens, UniProt Q13547); experiment: HDAC inhibition assay (HTRF), HDAC1; assay type: biochemical; details: read-out: IC50 ± SD, HDAC1;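 further: HTRF detection with streptavidin-XL665 plus Eu(K)-labelled anti-H3K9me0 antibody, two independent runs with duplicate wells per concentration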
T1 construct: purchased BPS #50001
T1 sequence (Q13547 whole entry): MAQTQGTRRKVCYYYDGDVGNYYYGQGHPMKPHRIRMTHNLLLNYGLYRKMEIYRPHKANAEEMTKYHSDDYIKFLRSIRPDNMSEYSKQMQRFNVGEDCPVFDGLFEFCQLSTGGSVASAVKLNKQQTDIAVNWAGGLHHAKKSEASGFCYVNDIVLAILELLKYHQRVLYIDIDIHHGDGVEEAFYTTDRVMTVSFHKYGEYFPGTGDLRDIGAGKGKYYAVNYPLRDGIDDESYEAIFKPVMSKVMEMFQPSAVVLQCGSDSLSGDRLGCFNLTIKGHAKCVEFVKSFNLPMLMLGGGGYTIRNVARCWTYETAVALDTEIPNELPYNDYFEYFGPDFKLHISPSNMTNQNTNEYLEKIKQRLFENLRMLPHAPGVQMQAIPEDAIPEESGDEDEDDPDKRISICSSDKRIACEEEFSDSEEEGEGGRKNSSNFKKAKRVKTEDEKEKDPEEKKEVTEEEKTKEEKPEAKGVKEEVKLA
Protocol: (§3) Then, SA-XL665 (#610SAXLG, Cisbio, Bedford, MA, USA) and anti-H3K9me0-Eu(K) (#61KB0KAD, Cisbio, USA) were added. […] The IC50 value of the compounds was calculated using GraphPad 7.0 software. Each set of experiments was independently repeated twice, with two replicate wells per concentration each time.

RPMI-8226 cells = experiment: Apoptosis assay, Annexin V-FITC/PI flow cytometry; assay type: cell-based, human; details: 1, 3 and 10 μM, 48 h
Description: Annexin V-FITC and PI double-staining detection kits were used to determine apoptotic cells. […] Data results were obtained from three independent experiments.

[2] = system: RPMI-8226 (human myeloma cell line); experiment: CCK8 cell viability assay, RPMI-8226; assay type: cell-based; details: 72 h, read-out: Proliferation inhibition IC50 ± SD, RPMI-8226
Protocol: as §1

HDAC6 = target: T2, HDAC6 (Homo sapiens, UniProt Q9UBN7); experiment: HDAC inhibition assay (HTRF), HDAC6; assay type: biochemical; details: read-out: IC50 ± SD, HDAC6
T2 construct: purchased BPS #50006
T2 sequence (Q9UBN7 1-1215): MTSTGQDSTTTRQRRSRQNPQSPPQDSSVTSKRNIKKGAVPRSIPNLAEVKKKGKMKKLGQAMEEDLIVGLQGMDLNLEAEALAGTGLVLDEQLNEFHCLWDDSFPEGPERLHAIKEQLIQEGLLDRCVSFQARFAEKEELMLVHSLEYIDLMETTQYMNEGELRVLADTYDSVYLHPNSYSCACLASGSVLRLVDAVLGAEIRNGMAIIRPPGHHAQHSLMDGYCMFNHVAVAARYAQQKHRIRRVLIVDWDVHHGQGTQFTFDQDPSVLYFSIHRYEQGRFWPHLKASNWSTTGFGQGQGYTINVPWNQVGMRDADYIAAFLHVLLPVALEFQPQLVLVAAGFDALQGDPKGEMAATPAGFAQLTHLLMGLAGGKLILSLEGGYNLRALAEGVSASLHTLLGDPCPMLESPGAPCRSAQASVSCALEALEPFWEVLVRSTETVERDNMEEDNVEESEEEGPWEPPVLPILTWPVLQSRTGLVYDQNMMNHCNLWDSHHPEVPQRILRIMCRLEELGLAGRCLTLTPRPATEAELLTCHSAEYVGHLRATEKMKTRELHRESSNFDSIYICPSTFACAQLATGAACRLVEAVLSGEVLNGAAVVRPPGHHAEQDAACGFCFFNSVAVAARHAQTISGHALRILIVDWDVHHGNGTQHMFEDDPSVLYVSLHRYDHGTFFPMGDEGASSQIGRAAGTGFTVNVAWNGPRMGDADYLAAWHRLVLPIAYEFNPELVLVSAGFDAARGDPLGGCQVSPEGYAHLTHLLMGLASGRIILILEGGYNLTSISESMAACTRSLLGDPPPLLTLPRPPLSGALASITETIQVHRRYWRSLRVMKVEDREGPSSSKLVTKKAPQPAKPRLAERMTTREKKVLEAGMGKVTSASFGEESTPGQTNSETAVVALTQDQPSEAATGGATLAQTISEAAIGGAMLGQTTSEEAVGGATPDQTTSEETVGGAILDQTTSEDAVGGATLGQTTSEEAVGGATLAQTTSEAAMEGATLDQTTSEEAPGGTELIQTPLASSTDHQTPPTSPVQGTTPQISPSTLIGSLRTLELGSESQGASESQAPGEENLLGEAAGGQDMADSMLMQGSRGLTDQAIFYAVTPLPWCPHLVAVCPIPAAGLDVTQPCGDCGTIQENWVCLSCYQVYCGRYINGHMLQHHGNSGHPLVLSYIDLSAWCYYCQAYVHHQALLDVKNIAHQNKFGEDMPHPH
Protocol: as §3

[3] = system: Ac-histone H3 in RPMI-8226 cells; experiment: Western blot of Ac-histone H3; assay type: cell-based, human; details: 24 h; for Histone H3 acetylation level: 10 μM
Protocol: (§2) RPMI-8226 cells were seeded in six-well plates and treated with compounds for 24 h. Cells were lysed with 1× SDS loading buffer (50 mM Tris pH 6.8, 100 mM DTT, 2% SDS, 0.1% bromophenol blue, 10% glycerol), and then centrifuged at 12,000 rpm for 5 min at 4 °C. Cell extracts were probed with antibodies Ac-Tubulin (#5335T, CST, Kansas City, MO, USA), α-Tubulin (#2144S, CST, Kansas City, MO, USA), AcH3 (#ab39139, active motif, Carlsbad, CA, USA), Histone H3 (#17168-1-AP, Proteintech, Chicago, IL, USA), GAPDH (#60004-1-1g, Proteintech, Chicago, IL, USA), Goat Anti-Mouse IgG, H&L Chain Specific Peroxidase Conjugate (#401215, Calbiochem, Darmstadt, Germany), Goat Anti-Rabbit IgG, or H&L Chain Specific Peroxidase Conjugate (#401353, Calbiochem, Germany), then detected using Bio-RAD power pal Basic (#041BR66615, BioRad Laboratories, Hercules, CA, USA), Bio-RAD Mini-PROTEAN Tetrade System (#IEC/EN 61010-1, BioRad Laboratories, Hercules, CA, USA), or Bio-RAD Chemi Touch Imagin (BioRad Laboratories, Hercules, CA, USA).

[4] = system: Ac-tubulin in RPMI-8226 cells; experiment: Western blot of Ac-tubulin; assay type: cell-based, human; details: 24 h; for Ac-α-tubulin protein expression: tested concentrations
Protocol: as §2

HDAC3 = HDAC3 (Homo sapiens, UniProt O15379); experiment: HDAC inhibition assay (HTRF), HDAC3;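 further: HTRF detection with streptavidin-XL665 and a Eu cryptate-labelled antibody against unmodified H3K9, two independent runs with duplicate wells at each concentration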
HDAC3, sequence (O15379 whole entry): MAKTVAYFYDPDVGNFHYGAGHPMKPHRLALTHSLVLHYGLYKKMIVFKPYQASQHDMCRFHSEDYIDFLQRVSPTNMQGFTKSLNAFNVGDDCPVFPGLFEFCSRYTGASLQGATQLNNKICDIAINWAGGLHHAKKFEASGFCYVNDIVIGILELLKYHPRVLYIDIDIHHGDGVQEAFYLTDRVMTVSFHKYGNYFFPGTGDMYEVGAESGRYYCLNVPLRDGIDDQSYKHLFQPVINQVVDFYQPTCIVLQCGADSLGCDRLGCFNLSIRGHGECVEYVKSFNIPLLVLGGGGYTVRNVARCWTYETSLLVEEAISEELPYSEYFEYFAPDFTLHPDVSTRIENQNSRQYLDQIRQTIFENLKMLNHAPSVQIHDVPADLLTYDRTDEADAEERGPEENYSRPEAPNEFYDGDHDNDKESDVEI
HDAC3, sequence (Q9Y618 395-489 partner limits assumed): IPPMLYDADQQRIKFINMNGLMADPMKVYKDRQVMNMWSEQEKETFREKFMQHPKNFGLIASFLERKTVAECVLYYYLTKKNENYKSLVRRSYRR
Protocol: as §3

[5] = system: HL-60 (human leukemia cell line); experiment: CCK8 cell viability assay, HL-60; assay type: cell-based; details: 72 h, read-out: Proliferation inhibition IC50 ± SD, HL-60
Protocol: as §1

[6] = ref [46],[47]; cited from earlier work
[7] = Pharmacokinetic study in male ICR mice; assay type: in vivo; details: mouse, plasma
Protocol: Specific procedures were referred to the reported method. ICR mice (n = 6) were fasted for 12 h before administration and remained fasting for 2 h. The animal room environment was controlled (target conditions: temperature 18 to 29 °C, relative humidity 30 to 70%). Temperature and relative humidity were monitored daily. An electronic time-controlled lighting system was used to provide a 12 h light/12 h dark cycle. Compound 20 was administered at doses of 5 mg/kg (po) and 1 mg/kg (iv). The time points for blood sample collection were 0.25, 0.50, 1.00, 2.00, 4.00, 8.00, and 24 h post dose for the po-administrated group, and the time points were 0.05, 0.25, 0.75, 2.00, 4.00, 8.00, and 24 h for the iv group. For each point, 20 μL of plasma were transferred into a clean tube, 200 μL of MeOH/ACN (50/50, v/v) containing IS were added, and they were thoroughly vortexed by a vortex mixer for 1 min. The mixture was centrifuged at 15000 rpm for 5 min, and then 20 μL of supernatant was mixed with 20 μL of water for the analysis by LC-MS.

SMILES	IC50 [1] [µM]	IC50 (HDAC1) [µM]	IC50 [2] [µM]	IC50 (HDAC6) [µM]	IC50 (HDAC3) [µM]	IC50 [5] [µM]	Promotion of RPMI-8226 cell apoptosis (RPMI-8226 cells)	Histone H3 acetylation level [3]	Ac-α-tubulin protein expression [4]	F% (oral bioavailability) [6] [%]	further results
CC(=O)c1cccn1Cc1ccc(/C=C/C(=O)NO)cc1 [Compound 14, (E)-3-(4-((2-acetyl-1H-pyrrol-1-yl)methyl)phenyl)-N-hydroxyacrylamide]	8.63 ± 0.82	0.8 ± 0.0504	8.85 ± 2.3	0.0337 ± 0.0148	0.457 ± 0.173	8.16 ± 1.96	promote RPMI-8226 cell apoptosis in a dose-dependent manner	–	–	–	Acetylated histone H3 compared to compound 5c ([3]; same concentration): induced more acetylated tubulin and acetylated histone H3; Acetylated tubulin compared to compound 5c ([4]; same concentration): induced more acetylated tubulin
Cc1[nH]c2ccccc2c1CCNCc1ccc(/C=C/C(=O)NO)cc1 [panobinostat]	–	–	–	–	–	–	–	–	–	4.62	–
CC(=O)c1cccn1CCc1ccc(C(=O)Nc2ccccc2N)cc1 [Compound 20, 4-(2-(2-Acetyl-1H-pyrrol-1-yl)ethyl)-N-(2-aminophenyl)benzamide]	9.08 ± 0.58	0.441 ± 0.0782	2.89 ± 0.43	> 10	1.08 ± 0.229	4.71 ± 0.24	promote RPMI-8226 cell apoptosis in a dose-dependent manner	increased histone H3 acetylation levels comparable to MS-275	no discernible effect	–	AUC(0-inf) ([7]; iv, 1 mg/kg): 163 ± 3 ng·h/mL; AUC(0-t) ([7]; iv, 1 mg/kg): 163 ± 3 ng·h/mL; MRT inf ([7]; iv, 1 mg/kg): 10.9 ± 0.36 min; clearance ([7]; iv, 1 mg/kg): 102 ± 2 mL/min/kg; half-life ([7]; iv, 1 mg/kg): 11.5 ± 0.72 min; Vd ([7]; iv, 1 mg/kg, read-out: Vss): 1.11 ± 0.052 L/kg; AUC(0-inf) ([7]; po, 5 mg/kg): 47.2 ± 26.6 ng·h/mL; AUC(0-t) ([7]; po, 5 mg/kg): 40.7 ± 21.8 ng·h/mL; Cmax ([7]; po, 5 mg/kg): 48.3 ± 31.1 ng/mL; MRT inf ([7]; po, 5 mg/kg): 110 ± 25.2 min; Tmax ([7]; po, 5 mg/kg): 20 ± 8.64 min; half-life ([7]; po, 5 mg/kg): 93 ± 30.6 min; bioavailability ([7]; po, 5 mg/kg, read-out: F (oral bioavailability)): 5%
O=C(CCCCCCC(=O)Nc1ccccc1)NO [SAHA, vorinostat]	–	–	–	–	–	–	–	–	–	8.33	–

Second part, led by results:

IC50 [1] [µM]	IC50 (HDAC1) [µM]	IC50 [2] [µM]	IC50 (HDAC6) [µM]	IC50 (HDAC3) [µM]	IC50 [5] [µM]	SMILES	Promotion of RPMI-8226 cell apoptosis (RPMI-8226 cells)	Histone H3 acetylation level [3]	Ac-α-tubulin protein expression [4]	F% (oral bioavailability) [6] [%]	further results
13.2 ± 2.48	1.1 ± 0.144	10 ± 0.52	> 10	1.39 ± 0.373	8.32 ± 0.37	CC(=O)c1cccn1Cc1cn(CCc2ccc(C(=O)Nc3ccccc3N)cc2)nn1 [Compound 19a, 4-(2-(4-((2-Acetyl-1H-pyrrol-1-yl)methyl)-1H-1,2,3-triazol-1-yl)ethyl)-N-(2-aminophenyl)benzamide]	promote RPMI-8226 cell apoptosis in a dose-dependent manner	increased histone H3 acetylation levels comparable to MS-275	no discernible effect	–	–
12.3 ± 2.2	0.0368 ± 0.00587	11.9 ± 1.58	0.00422 ± 0.0001	0.0266 ± 0.0019	8.56 ± 1.47	O=C(CCCCCCn1cccc1C(=O)C(F)(F)F)NO [Compound 5c, N-hydroxy-7-(2-(2,2,2-trifluoroacetyl)-1H-pyrrol-1-yl)heptanamide]	promote RPMI-8226 cell apoptosis in a dose-dependent manner	–	–	–	–
